In patent publication US20250127821A1, “PHARMACEUTICAL COMPOSITION AND COSMETIC COMPOSITION” (I Peace, Inc., priority 2023, published 2025):

How the values were obtained:
Assay type in all cases: cell-based
[1] = tested on: normal human umbilical vein endothelial cells; experiment: Prostacyclin production test (6-keto prostaglandin Fla ELISA); settings: positive control 10 μM, 24 hours
Protocol: Normal human umbilical vein endothelial cells (Lonza, CC2519AS) were seeded into a T-75 flask using medium (EGM-2, Lonza, CC-3162) and cultured in a CO2 incubator until 60% to 80% confluence. The cells were then detached from the T-75 flask using 0.05% trypsin-EDTA and phenol red. The detached cells were seeded into a 96-well plate at 10,000 cells/100 μL/well in medium and cultured in a CO2 incubator. The next day, the medium was replaced with 100 μL of medium containing test substances 1 through 7 at final concentrations of 5% and 20%, and the positive control substance at a final concentration of 10 μM, or medium without test or positive control substances. The cells were then cultured for 24 hours in a CO2 incubator. The culture supernatant was collected, and the amount of 6-keto prostaglandin Fla, a metabolite of prostacyclin, was measured using an ELISA kit (Abcam, ab133023) and a multi-spectral microplate reader (Varioskan Flash, Thermo Fisher Scientific).

[2] = tested on: adipocytes differentiated from normal human subcutaneous preadipocytes; experiment: Fat-decomposing assay (free glycerol in culture supernatant); settings: positive control 10 μM, 24 hours
Protocol: Normal human subcutaneous preadipocytes (Lonza, PT-5020) were seeded into a T-75 flask using a proliferation medium (PGM-2, 10% FBS, 2 mM L-glutamine, 50 μg/mL gentamicin, and 37 ng/mL amphotericin B-supplemented PBM, Lonza, PT-8002) and cultured in a CO2 incubator (37° C., 5% CO2, humidified) until they reached 60% to 80% confluence. The cells were then detached using 0.25% trypsin-EDTA and centrifuged. Subsequently, the cells were seeded into a 96-well plate at 10,000 cells/100 μL/well in proliferation medium and incubated in a CO2 incubator. The following day, the medium was replaced with 100 μL of differentiation medium (PGM-2 supplemented with insulin, dexamethasone, indomethacin, and isobutyl-methylxanthine; Lonza, PT-8002), and the cells were cultured for seven days to induce differentiation of preadipocytes into adipocytes. […] Thereafter, the culture supernatant was collected, and the amount of free glycerol in the supernatant was measured using a fat-decomposing assay kit (Cayman, 10009381). […] Specifically, a multi-spectral microplate reader (Varioskan Flash, Thermo Fisher Scientific) was used to measure the absorbance of the supernatant at a wavelength of 540 nm, and the relative concentration of free glycerol was calculated. […]

[3] = tested on: normal human skeletal muscle myoblasts; experiment: Myotube differentiation promotion test (anti-MHC staining, differentiation index); settings: positive control 50 nmol/L, 3 days
Protocol: Using proliferation medium (SkGM-2, Lonza, CC-3245), normal human skeletal muscle myoblasts (Lonza, CC-2580) were seeded into a T-75 flask and cultured in a CO2 incubator until approximately 60% confluence. The cells were then detached from the T-75 flask using 0.05% trypsin-EDTA and phenol red. The detached cells were seeded into a 96-well plate at 7,500 cells/100 μL/well in proliferation medium and cultured in a CO2 incubator.
The next day, the medium was replaced with 100 μL of differentiation medium (2% horse serum-supplemented DMEM: F12) containing test substances 1 through 7 at final concentrations of 5% and 20% and the positive control substance at a final concentration of 50 nmol/L, or differentiation medium without test or positive control substances. The cells were then cultured for 3 days in a CO2 incubator to induce differentiation of myoblasts into myotubes.
Subsequently, the medium was removed from the wells, and 100 μL of 4% paraformaldehyde at 4° C. was added to each well, followed by incubation at 4° C. for 15 minutes to fix the cells. […]
From the captured images, the number of cell nuclei and the number of nuclei positive for myosin heavy chain were measured, and the differentiation index I (%) was calculated according to formula (1) below. […]

[4] = tested on: human chondrocyte cell line (SW1353); experiment: Hyaluronic acid production test (ELISA); settings: positive control 10 mmol/L
Protocol: Using proliferation medium (DMEM/F-12 supplemented with 10% FBS and 1% penicillin-streptomycin mixture), a human chondrocyte cell line (SW1353, ATCC, HTB-94) was seeded into a T-75 flask and cultured in a CO2 incubator until 60-80% confluency. The cells were then detached from the T-75 flask using 0.25% trypsin-EDTA and phenol red. Subsequently, using the proliferation medium, the human chondrocytes were seeded into a 96-well plate at a density of 10,000 cells/100 μL/well and cultured in a CO2 incubator.
The following day, the medium was replaced with 100 μL of assay medium (DMEM/F-12 supplemented with 1% FBS and 1% penicillin-streptomycin mixture), containing each of test substances 1 through 7 at final concentrations of 5% and 20% or a positive control substance at a final concentration of 10 mmol/L, or assay medium without test substances or positive control. The human chondrocytes were cultured in a CO2 incubator for 24 or 72 hours.
The culture supernatant was collected, and the amount of hyaluronic acid was measured using an ELISA kit (Hyaluronan Quantikine ELISA Kit, R&D Systems) and a multi-spectral microplate reader (Varioskan Flash, Thermo Fisher Scientific).

CCCCC/C=C\C/C=C\C/C=C\C/C=C\CCCC(=O)O [arachidonic acid]
levels of 6-keto prostaglandin Fla compared to the control [1]: significantly higher

CC(C)NCC(O)c1ccc(O)c(O)c1 (centres unmarked) [isoproterenol]
amount of fat-decomposition (free glycerol) compared to the control [2]: significantly higher

insulin
differentiation index to myotubes compared to the control [3]: significantly higher

CC(=O)N[C@H]1C(O)O[C@H](CO)[C@@H](O)[C@@H]1O (some centres unmarked) [N-acetylglucosamine]
hyaluronic acid production compared to the control ([4]; cultured 24 hours): significantly higher | hyaluronic acid production compared to the control ([4]; cultured 72 hours): significantly higher
